{
  "source": "patent US4908380A",
  "about": "“Pharmaceutical compositions” (Imperial Chemical Industries plc, priority 1986, dated 1990)",
  "key": {"[1]": {"system": "U46619 induced hypertension", "experiment": "Test (d): U46619 induced hypertension in anaesthetised male rats (Alderley Park strain)", "assay_type": "in vivo, rat", "settings": "1 hour after oral dose of 0.5 mg/kg", "description": "(d) Male rats (Alderley Park strain) are anaesthetised with sodium pentobarbital and blood pressure is monitored at the carotid artery. The TXA2 mimetic agent U46619 is administered intravenously at 5 μg/kg via the jugular vein to produce 20-30 mm/Hg (2640-3970 pascal) increase in systolic blood pressure. The process is repeated twice to ensure adequacy of response. A test compound is then administered either intravenously (via the jugular vein) or orally (via a cannula) directly into the stomach and the animal challenged with U46619, five minutes after dosing with test compound and then successively every ten minutes until the hypertensive effect of U46619 is no longer blocked."}, "[2]": {"system": "arachidonic acid induced aggregation of human platelets", "experiment": "Arachidonic acid induced aggregation of human platelets in vitro", "assay_type": "cell-based", "settings": "Platelet, read-out: % Inhibition of vehicle control", "description": "The beneficial effects of combining one of the novel TXA2 antagonists of formula I defined hereinabove with a TXA2 synthetase inhibitor may be illustrated in vitro, for example by evaluating their effects in inhibiting arachidonic acid induced aggregation of human platelets, using standard procedures well known in the art. Thus, for example, the following results were obtained with the TXA2 antagonist described hereinafter in Ex. 2, 6 and 20 (Compound A) and the TXA2 synthetase inhibitor known as dazoxiben (Compound B): […]"}, "thromboxane receptor": {"system": "thromboxane receptor", "experiment": "Test (a): rabbit or rat aortal strip, TXA2 antagonism (agonist TXA2 or U46619)", "assay_type": "cell-based", "settings": "±0.05", "description": "It is believed that TXA2 exerts its physiological action through the thromboxane receptor, at which receptor various other prostanoid contractile substances derived from arachidonic acid, such as prostaglandins H2, F2 alpha and prostaglandin D2, can exert contractile effects. There are two principal ways in which the effects of TXA2 (and also of prostaglandins H2, F2 alpha and/or D2) can be ameliorated. […] The second way is to administer a pharmacological agent which inhibits one or more of the enzymes involved in the production of TXA2 and in particular, which inhibits the enzyme known as thromboxane synthetase (TXA2 synthetase). Such an agent is said to be a TXA2 synthetase inhibitor.\nAs stated earlier, the novel compounds of formula I are antagonists of one or more of the actions of TXA2, for example certain of its actions on blood platelets, the vasculature and/or the lung.\n(a) The rabbit aortal strip model devised by Piper and Vane (Nature, 1969, 223, 29-35) or the rat aortal strip model developed by Kennedy et alia (Prostaglandins, 1982, 24, 667-689), using as agonist a freshly prepared sample of TXA2, generated by addition of arachidonic acid (25 μg) to citrated, platelet rich rabbit plasma (250 μl) and allowing the mixture to aggregate fully over 90 seconds before use; alternatively the TXA2 mimetic agent known as U46619 (described by R. L. Jones et alia in \"Chemistry, Biochemistry and Pharmacological Activity of Prostanoids\" edited by S. M. Roberts and F. Scheinmann, at page 211; Pergamon Press, 1979) may be used as the agonist; and\nUsing the above test procedures (a)-(c), the following representative results have been obtained with the compounds of formula II wherein (i) X^1 is 2-chloro, (ii) X^1 is 2-cyano; or (iii) X^1 is 4-cyano, respectively: […]"}, "[3]": {"system": "U46619 induced bronchoconstriction", "experiment": "Test (c): U46619 induced bronchoconstriction in Konzett-Rossler anaesthetised guinea-pig", "assay_type": "in vivo", "settings": "2 hours after oral dosing at 0.05 mg/kg", "description": "(c) a bronchoconstriction test involving measuring the inhibition by a test compound of the bronchoconstriction induced in the Konzett-Rossler, anaesthetised guinea-pig model (as modified by Collier and James, Brit.J.Pharmacol., 1967, 30, 283-307) by intravenous administration of the TXA2 mimetic agent, U46619 and involving:\n(i) obtaining a cumulative dose-response curve to U46619 induced bronchoconstriction by intravenous administration of constant volumes of increasing concentrations of U46619 (0.2-4 μg/kg) in physiological saline solution and expressing bronchoconstriction as the maximum of that theoretically obtainable with no air flow to the test animal;\n(ii) generating a cumulative dose-response curve to U46619 induced bronchoconstriction at 30 minute intervals for 3 hours after oral dosing of test compound; and\n(iii) calculating a dose-ratio for the test compound (that is the ratio of concentration of U46619 required to cause 50% bronchoconstriction in the presence and absence of test compound) indicating the potency of TXA2 antagonism."}, "diamondback moths": {"system": "diamondback moths", "experiment": "Catches of diamondback moths (lures)"}},
  "data": [
    {"compound": "O=C(O)CC/C=C\\C[C@@H]1CO[C@H](c2ccccc2Cl)O[C@@H]1c1ccccc1O", "note": "(relative stereo) [(i), 4(Z)-6-([2,4,5-cis]-2-o-chlorophenyl-4-o-hydroxyphenyl-1,3-dioxan-5-yl)hexenoic acid]", "values": [
      {"measurement": "inhibition of U46619 induced hypertension", "setting": "[1]", "value": "> 80", "unit": "%"},
      {"measurement": "inhibition at 0.001 µM", "setting": "[2]; A at 10^-9 M", "value": "2.2 ± 0.8", "unit": "%"},
      {"measurement": "pA2", "setting": "thromboxane receptor", "value": 8.02}
    ]},
    {"compound": "N#Cc1ccccc1[C@H]1OC[C@@H](C/C=C\\CCC(=O)O)[C@@H](c2ccccc2O)O1", "note": "(relative stereo) [(ii), 4(Z)-6-([2,4,5-cis]-2-o-cyanophenyl-4-o-hydroxyphenyl-1,3-dioxan-5-yl)hexenoic acid]", "values": [
      {"measurement": "inhibition of U46619 induced hypertension", "setting": "[1]", "value": "> 80", "unit": "%"},
      {"measurement": "pA2", "setting": "thromboxane receptor", "value": 8.09},
      {"measurement": "dose ratio", "setting": "[3]", "value": "> 32"}
    ]},
    {"compound": "N#Cc1ccc([C@H]2OC[C@@H](C/C=C\\CCC(=O)O)[C@@H](c3ccccc3O)O2)cc1", "note": "(relative stereo) [(iii)]", "values": [
      {"measurement": "inhibition of U46619 induced hypertension", "setting": "[1]", "value": "> 40", "unit": "%"},
      {"measurement": "pA2", "setting": "thromboxane receptor", "value": 7.45},
      {"measurement": "dose ratio", "setting": "[3]", "value": "> 350"}
    ]},
    {"compound": "O=C(O)CCC/C=C\\C[C@@H]1CO[C@H](c2ccccc2Cl)O[C@@H]1c1ccccc1", "note": "(relative stereo) [(iv), 5(Z)-7-([2,4,5-cis]-2-o-chlorophenyl-4-phenyl-1,3-dioxan-5-yl)heptenoic acid, reference compound]", "values": [
      {"measurement": "pA2", "setting": "thromboxane receptor", "value": 6.22}
    ]},
    {"compound": "N#Cc1ccc([C@H]2OC[C@@H](C/C=C\\CCCC(=O)O)[C@@H](c3ccccc3)O2)cc1", "note": "(relative stereo) [(v), reference compound]", "values": [
      {"measurement": "pA2", "setting": "thromboxane receptor", "value": 5.65}
    ]},
    {"compound": "O=C(O)c1ccc(OCCn2ccnc2)cc1", "note": "[B]", "values": [
      {"measurement": "inhibition at 100 µM", "setting": "[2]; B at 10^-4 M", "value": "32.2 ± 16.3", "unit": "%"},
      {"measurement": "inhibition at 10 µM", "setting": "[2]; B at 10^-5 M", "value": "4.5 ± 1.8", "unit": "%"}
    ]},
    {"compound": "CCCC/C=C\\CCCCCCCCCCOC(C)=O", "note": "[HLA, ( --Z)-11-hexadecenyl acetate]", "values": [
      {"measurement": "Weekly catch week 1", "setting": "diamondback moths; week 1", "value": 0},
      {"measurement": "Weekly catch week 2", "setting": "diamondback moths; week 2", "value": 1},
      {"measurement": "Weekly catch week 3", "setting": "diamondback moths; week 3", "value": 5},
      {"measurement": "Weekly catch week 4", "setting": "diamondback moths; week 4", "value": 3}
    ]}
  ]
}
